Peptide text beside a SMILES is read from it. * marks the point of attachment. Palmitoyl = CCCCCCCCCCCCCCCC(=O)*
Legend:
[1] = biological target: T1, PAR1 (Homo sapiens, UniProt P25116); assay: ERK1/2 phosphorylation in A549 cells (thrombin or […]), Western blot; type: cell-based; set-up: endogenous in cells; host or cells: A549, HOP62, H1299, H522, H226, HOP92 lung carcinoma lines; conditions: A549 cells; pepducin 0.1-3 μM
T1 sequence (P25116 22-425): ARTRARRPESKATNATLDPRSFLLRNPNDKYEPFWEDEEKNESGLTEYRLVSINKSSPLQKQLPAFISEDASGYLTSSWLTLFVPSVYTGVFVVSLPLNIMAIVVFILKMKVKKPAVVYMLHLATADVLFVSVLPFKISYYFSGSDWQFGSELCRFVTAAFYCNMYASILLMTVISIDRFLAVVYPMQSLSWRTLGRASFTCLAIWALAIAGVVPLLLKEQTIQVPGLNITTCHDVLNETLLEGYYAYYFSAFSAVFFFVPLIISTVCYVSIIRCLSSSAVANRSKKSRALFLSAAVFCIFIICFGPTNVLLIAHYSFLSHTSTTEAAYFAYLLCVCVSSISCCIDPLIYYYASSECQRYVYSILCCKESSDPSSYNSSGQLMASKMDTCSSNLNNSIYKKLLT
Experimental: FIG. 9 illustrates that differential inhibition of PAR1-ERK activation by i3- and i1-derived PAR1 pepducins. (A-C): Western blots of lysates from A549 cells untreated, or treated with thrombin, SLIGKV (SEQ ID NO:29), or AYPGKF (SEQ ID NO:5). Indicated samples were pretreated with various concentrations (0.1 to 3 μmol/L) of P1pal-7, P1pal-10S, or P1pal-i1-11 before stimulation and immunoblotted with anti-phospho-ERK. (D-F): Quantification of the Western blots in (A-C) were conducted by densitometry and results are expressed relative to maximum (fold max) phosphorylation of pERK.
(B): A549 cells stimulated with 10 μM […] over 2 h. A549 cells pretreated with 0.1 μM P1pal-7 and stimulated with 10 μM […] (SEQ ID NO:30) for 5 min. Total ERK was used as a loading control.
Last, there has been a great deal of interest in understanding the mechanism of PAR1-mediated activation of MAP kinase cascade and PAR1-dependent cellular growth and differentiation, proliferation and gene transcription. […] The effects of i1 versus i3 PAR1 pepducins on ERK1/2 activation were examined in the A549 lung adenocarcinoma cell line. […] Inhibition experiments with a range of pepducin concentrations (0.1-3 μM) were conducted. […] The […] (SEQ ID NO:30) peptide gave a rapid and transient ERK1/2 phosphorylation signal that peaked at 5-15 min after stimulation. […] To determine the specificity of the PAR1 pepducin inhibitors, their effects on the closely related PAR2 and PAR4 receptors were also tested.

[2] = biological target: T2, PAR2 (Homo sapiens, UniProt P55085); assay: Agonist | (%)^‡; set-up: SW620 colon adenocarcinoma cells that endogenously express PAR2; endogenous in cells; host or cells: SW620 (in A7 the SW620 cells were additionally stably transfected with PAR1)
Target sequence in this assay (P55085 26-397 limits assumed): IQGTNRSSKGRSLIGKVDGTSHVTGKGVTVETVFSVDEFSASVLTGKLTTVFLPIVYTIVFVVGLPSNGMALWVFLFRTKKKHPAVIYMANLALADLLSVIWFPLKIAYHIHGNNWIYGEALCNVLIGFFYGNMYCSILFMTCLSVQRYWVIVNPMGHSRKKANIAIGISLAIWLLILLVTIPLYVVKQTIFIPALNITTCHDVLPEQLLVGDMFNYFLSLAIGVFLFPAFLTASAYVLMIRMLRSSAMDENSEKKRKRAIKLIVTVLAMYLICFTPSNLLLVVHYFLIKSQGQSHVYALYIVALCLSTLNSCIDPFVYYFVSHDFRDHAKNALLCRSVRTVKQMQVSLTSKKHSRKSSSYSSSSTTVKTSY

[3] = biological target: T2, PAR2; assay: Human neutrophil chemotaxis to PAR2 agonists (trypsin, SLIGRL, tryptase); type: cell-based; set-up: SW620 colon adenocarcinoma cells that endogenously express PAR2; endogenous in cells; host or cells: SW620 (in A7 the SW620 cells were additionally stably transfected with PAR1)
Experimental: (A) Human neutrophils (n=4 normal volunteers) were analyzed for surface expression of human PAR1, PAR2, and PAR4 by flow cytometry with PAR-specific antibodies. […] Chemotaxis index is the ratio of directed versus random migration over 30 min through a 5-μm pore filter.
The ability of some pepducin embodiments of the invention to antagonize PAR2-dependent activity of human neutrophils was tested. Neutrophils were isolated from the peripheral blood of healthy human volunteers and found to express high levels of surface PAR2 and PAR4 and lower apparent levels of PAR1 by flow cytometry (FIG. 3A). […] As human PAR2 shares 85% identity with mouse PAR2 and the mouse i3 loop retains all of the critical pharmacophores identified in the human PAR2 i3 loop, cross-species inhibition with mouse cells was tested.
Target sequence in this assay (P55085 26-397): as the sequence (P55085 26-397 limits assumed) above

[4] = biological target: PAR2 (Mus musculus, UniProt P55086); assay: Mast cell conditioned media-induced mouse paw edema; type: in vivo; set-up: from tissue; host or cells: living C57BL/6 mice, hindpaw; conditions: 10 mg/kg
Experimental: (A) Mast cells were treated with 2 mg/mL of mast cell degranulating agent 48/80 or 2% 1-carrageenan/4% kaolin. […] (B) P2pal-18S inhibits human neutrophil chemotaxis (n=6) to mast cell media. Human neutrophils were incubated with […] P2pal-18S, or […] mast cell tryptase inhibitor APC-366 and allowed to migrate 30 min toward CM from mast cells. (C) C57BL/6 mice (n=5) were pretreated with the tryptase inhibitor APC-366 (5 mg/kg, s.c.) or vehicle (20% DMSO) and then challenged with intraplantar injection of 1-carrageenan/kaolin. (D) Mast cell conditioned media (30 μL of 1-carrageenan/kaolin stimulated media) was injected into the hindpaws of C57BL/6 mice treated with 10 mg/kg P2pal-18S or vehicle (n=5). Data represent mean±SEM. #, P=0.07, *, P<0.05 and **, P<0.005. (E) Mast cell-deficient mice have a significant reduction in 1-carrageenan/kaolin induced paw edema (8 h time point, n=4-6) as compared to littermate controls. Mast-cell deficient mice or littermate controls with intact mast cells were treated with P2pal-18S (10 mg/kg, s.c.) or vehicle and hind paws challenged with 1-carrageenan/kaolin irritant. Error bars represent mean±SEM.
To examine whether mast cells and mast cell tryptase were activating PAR2 in the paw edema model in vivo, mice were depleted of mast cells through pretreatment with compound 48/80 (Carvalho M et al. Eur J Pharmacol (2005), 525: 161-169). […]

[5] = biological target: T2, PAR2; assay: PAR2 binding to avidin beads coupled with PAR2 i3 loop 18S peptide
Target sequence in this assay (P55085 26-397): as the sequence (P55085 26-397 limits assumed) above

PAR2 (Mus musculus, UniProt P55086), sequence (P55086 26-399): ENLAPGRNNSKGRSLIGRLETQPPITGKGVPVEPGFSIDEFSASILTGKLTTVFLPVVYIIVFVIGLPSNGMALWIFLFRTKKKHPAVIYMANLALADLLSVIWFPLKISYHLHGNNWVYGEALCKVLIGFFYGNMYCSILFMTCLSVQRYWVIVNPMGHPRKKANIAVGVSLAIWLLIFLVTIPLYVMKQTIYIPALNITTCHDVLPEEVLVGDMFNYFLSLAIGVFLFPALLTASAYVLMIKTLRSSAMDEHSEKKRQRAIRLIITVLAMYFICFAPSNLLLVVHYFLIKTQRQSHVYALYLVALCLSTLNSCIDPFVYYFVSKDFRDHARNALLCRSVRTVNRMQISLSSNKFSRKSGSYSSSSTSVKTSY

SMILES	Effect on thrombin-induced ERK1/2 phosphorylation [1]	Agonist | (%)^‡ [2]	Inhibition of chemotactic migration to tryptase ([3]; 0.3 μM pepducin, 100 nM tryptase)	IC50 ([3]; gradients of trypsin (30 nM) and SLIGRL (10 μM), 30 min, read-out: IC50, inhibition of neutrophil chemotaxis)	Decrease in peak development of edema ([4]; at 4 h, mast cell media intraplantar)	Protection against edema at later times ([4]; at 8 h and thereafter)	Binding of PAR2 to peptide-coupled avidin beads versus beads alone [5]
CCCCCCCCCCCCCCCC(=O)N[C@H](C(=O)N[C@@H](CC(C)C)C(=O)N[C@@H](CCCCN)C(=O)N[C@@H](CCSC)C(=O)N[C@@H](CCCCN)C(=O)N[C@H](C(=O)N[C@@H](CCCCN)C(=O)N[C@@H](CCCCN)C(=O)N1CCC[C@H]1C(=O)N[C@@H](C)C(=O)N[C@H](C(N)=O)C(C)C)C(C)C)[C@@H](C)CC [P1pal-i1-11] (Palmitoyl-ILKMKVKKPAV-NH2)	no effect						
CCCCCCCCCCCCCCCC(=O)N[C@@H](CCCNC(=N)N)C(=O)N[C@@H](CO)C(=O)N[C@@H](CO)C(=O)N[C@@H](C)C(=O)N[C@@H](CCSC)C(=O)N[C@@H](CC(=O)O)C(=O)N[C@@H](CCC(=O)O)C(=O)N[C@@H](CC(N)=O)C(=O)N[C@@H](CO)C(=O)N[C@@H](CCC(=O)O)C(=O)N[C@@H](CCCCN)C(=O)N[C@@H](CCCCN)C(=O)N[C@@H](CCCNC(=N)N)C(=O)N[C@@H](CCCCN)C(=O)N[C@@H](CO)C(=O)N[C@@H](C)C(=O)N[C@H](C(=O)N[C@@H](CCCCN)C(N)=O)[C@@H](C)CC [P2pal-18S]		3%	completely blocked	0.14 to 0.2 µM	50%	complete protection	enhanced binding
